This passage reports IC50 results from BindingDB's records for doi:10.1021/jm010294e (Novartis Institute For Biomedical Reasearch, 2001).

Sequence of Apolipoprotein B-100 (P04114 whole entry C1422Y): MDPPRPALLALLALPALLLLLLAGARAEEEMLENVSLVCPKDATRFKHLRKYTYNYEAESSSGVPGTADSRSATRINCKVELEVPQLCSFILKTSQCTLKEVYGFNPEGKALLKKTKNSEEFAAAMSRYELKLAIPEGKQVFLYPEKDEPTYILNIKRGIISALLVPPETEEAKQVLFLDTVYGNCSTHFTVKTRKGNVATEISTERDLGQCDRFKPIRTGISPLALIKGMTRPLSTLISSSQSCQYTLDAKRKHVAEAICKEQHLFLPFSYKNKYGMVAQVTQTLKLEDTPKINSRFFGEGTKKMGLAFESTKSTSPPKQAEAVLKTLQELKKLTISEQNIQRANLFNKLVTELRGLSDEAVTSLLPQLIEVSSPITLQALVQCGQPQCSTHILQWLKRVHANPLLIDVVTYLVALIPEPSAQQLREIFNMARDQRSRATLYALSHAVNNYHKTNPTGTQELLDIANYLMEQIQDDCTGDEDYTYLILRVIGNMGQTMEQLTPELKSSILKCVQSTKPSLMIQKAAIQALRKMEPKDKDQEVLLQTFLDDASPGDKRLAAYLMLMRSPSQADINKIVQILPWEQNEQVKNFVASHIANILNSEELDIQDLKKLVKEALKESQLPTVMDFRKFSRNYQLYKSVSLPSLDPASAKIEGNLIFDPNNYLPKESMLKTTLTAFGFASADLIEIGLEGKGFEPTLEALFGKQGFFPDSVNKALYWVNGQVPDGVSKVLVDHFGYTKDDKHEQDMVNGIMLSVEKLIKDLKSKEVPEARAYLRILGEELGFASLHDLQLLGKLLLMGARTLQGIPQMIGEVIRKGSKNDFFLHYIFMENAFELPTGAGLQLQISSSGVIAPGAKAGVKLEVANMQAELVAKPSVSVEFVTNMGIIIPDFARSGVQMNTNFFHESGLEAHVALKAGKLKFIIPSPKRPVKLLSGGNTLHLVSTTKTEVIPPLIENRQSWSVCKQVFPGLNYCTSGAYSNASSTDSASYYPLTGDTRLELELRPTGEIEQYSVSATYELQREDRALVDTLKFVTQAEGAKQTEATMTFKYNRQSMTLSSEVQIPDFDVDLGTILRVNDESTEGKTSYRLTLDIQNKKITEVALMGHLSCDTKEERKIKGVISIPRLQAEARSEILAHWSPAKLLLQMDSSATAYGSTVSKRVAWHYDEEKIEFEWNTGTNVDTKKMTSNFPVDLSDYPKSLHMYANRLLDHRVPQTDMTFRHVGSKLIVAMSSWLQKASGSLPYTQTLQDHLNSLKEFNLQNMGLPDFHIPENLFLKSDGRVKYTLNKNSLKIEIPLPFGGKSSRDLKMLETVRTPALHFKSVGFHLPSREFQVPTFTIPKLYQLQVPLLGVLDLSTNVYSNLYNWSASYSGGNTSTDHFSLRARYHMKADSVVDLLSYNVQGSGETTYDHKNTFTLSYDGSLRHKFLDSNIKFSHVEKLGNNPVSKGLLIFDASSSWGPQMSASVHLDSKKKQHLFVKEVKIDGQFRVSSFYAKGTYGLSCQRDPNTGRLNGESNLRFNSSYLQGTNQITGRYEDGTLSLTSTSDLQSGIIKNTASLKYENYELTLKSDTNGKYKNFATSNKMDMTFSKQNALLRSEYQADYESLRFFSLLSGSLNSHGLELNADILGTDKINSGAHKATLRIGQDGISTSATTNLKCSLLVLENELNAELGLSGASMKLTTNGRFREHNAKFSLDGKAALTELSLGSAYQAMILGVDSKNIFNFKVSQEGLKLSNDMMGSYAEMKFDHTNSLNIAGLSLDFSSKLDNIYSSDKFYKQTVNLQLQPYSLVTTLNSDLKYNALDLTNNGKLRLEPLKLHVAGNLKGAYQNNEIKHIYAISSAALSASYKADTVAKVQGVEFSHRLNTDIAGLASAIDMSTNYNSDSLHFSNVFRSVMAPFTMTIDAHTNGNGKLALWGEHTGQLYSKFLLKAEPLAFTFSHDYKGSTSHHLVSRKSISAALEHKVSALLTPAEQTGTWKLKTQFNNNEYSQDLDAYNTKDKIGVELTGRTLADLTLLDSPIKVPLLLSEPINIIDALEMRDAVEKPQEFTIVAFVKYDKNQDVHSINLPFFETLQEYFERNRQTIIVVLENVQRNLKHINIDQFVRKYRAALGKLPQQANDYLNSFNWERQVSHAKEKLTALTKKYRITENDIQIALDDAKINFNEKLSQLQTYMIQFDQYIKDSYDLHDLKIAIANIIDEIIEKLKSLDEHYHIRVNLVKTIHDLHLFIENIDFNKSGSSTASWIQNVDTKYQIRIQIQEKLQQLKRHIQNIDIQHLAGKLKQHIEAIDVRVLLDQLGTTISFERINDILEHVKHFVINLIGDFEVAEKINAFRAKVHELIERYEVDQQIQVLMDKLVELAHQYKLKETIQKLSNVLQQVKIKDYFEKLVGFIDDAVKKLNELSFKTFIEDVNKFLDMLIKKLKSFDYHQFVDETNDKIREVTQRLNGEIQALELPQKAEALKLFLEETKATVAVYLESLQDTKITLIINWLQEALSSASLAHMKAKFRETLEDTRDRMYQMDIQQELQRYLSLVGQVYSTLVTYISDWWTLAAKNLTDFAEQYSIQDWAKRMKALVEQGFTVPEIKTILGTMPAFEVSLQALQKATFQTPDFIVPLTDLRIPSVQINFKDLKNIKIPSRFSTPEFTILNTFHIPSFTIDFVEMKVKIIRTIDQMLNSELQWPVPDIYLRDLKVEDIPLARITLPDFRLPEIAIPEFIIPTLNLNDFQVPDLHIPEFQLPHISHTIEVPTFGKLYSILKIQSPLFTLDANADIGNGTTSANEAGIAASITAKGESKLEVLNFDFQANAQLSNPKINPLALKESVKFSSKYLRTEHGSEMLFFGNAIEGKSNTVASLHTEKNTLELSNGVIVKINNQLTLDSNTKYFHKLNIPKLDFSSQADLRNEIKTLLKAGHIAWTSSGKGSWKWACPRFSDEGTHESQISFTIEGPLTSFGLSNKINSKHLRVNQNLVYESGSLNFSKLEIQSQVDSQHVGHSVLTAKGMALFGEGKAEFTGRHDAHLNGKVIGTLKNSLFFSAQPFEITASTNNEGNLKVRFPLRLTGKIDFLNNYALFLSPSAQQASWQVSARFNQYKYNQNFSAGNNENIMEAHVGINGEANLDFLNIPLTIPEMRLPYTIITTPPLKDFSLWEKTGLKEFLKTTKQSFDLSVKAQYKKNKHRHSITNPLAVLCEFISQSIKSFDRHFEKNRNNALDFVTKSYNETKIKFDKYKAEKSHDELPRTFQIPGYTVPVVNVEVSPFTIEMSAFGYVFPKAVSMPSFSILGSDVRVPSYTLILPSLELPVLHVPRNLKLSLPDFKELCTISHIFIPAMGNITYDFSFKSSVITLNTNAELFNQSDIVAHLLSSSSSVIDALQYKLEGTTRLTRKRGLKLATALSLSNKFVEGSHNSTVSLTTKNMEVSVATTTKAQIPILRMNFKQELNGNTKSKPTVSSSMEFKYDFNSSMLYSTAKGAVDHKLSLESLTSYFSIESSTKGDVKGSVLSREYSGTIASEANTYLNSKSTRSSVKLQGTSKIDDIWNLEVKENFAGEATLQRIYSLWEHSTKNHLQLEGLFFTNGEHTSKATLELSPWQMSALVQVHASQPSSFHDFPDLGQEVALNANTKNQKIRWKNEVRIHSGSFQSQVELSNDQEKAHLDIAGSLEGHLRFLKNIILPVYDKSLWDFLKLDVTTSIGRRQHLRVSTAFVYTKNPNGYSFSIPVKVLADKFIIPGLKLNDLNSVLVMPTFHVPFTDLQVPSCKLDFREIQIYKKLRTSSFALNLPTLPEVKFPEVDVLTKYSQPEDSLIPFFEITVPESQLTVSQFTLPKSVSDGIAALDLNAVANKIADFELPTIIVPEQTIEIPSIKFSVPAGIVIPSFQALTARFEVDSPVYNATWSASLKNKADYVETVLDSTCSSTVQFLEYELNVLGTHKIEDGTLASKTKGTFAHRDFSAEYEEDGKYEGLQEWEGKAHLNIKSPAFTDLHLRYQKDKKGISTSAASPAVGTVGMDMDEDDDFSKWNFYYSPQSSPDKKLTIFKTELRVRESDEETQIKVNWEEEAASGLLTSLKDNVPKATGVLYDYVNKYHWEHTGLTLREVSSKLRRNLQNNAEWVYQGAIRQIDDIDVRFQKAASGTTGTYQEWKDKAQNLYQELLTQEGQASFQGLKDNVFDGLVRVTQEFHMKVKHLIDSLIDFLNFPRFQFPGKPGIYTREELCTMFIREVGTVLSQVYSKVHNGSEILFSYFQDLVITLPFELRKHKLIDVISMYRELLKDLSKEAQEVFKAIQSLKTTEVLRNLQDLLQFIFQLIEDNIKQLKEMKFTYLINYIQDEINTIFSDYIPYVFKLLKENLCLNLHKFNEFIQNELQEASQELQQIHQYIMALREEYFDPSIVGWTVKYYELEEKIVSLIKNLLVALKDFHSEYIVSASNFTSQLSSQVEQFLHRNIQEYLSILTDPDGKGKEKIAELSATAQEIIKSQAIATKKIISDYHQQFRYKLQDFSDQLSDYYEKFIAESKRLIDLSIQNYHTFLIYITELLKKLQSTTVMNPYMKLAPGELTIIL

The experiment addresses Apolipoprotein B-100 (Homo sapiens, UniProt P04114). Put plainly: Inhibition of apolipoprotein B (apoB) secreted by human hepatoma cells (Hep G2) […].
In the case of `COc1cccc(C(=O)Nc2ccc3c(c2)CC(NS(=O)(=O)c2ccccc2)C3)c1-c1ccc(Cl)cc1` (stereo not given) [4'-Chloro-6-methoxy-biphenyl-2-carboxylic acid (2-benzenesulfonylamino-indan-5-yl)-amide], the IC50 (in general, the midpoint of a concentration-inhibition curve) came out at 2 nM. On to `COc1cccc(C(=O)Nc2ccc3c(c2)CC(NS(C)(=O)=O)C3)c1-c1ccc(Cl)cc1` (stereo not given) [4'-Chloro-6-methoxy-biphenyl-2-carboxylic acid (2-methanesulfonylamino-indan-5-yl)-amide], for which the IC50 amounted to 15 nM. Turning to `Cc1cccc(C(=O)Nc2ccc3c(c2)CC(NS(=O)(=O)c2ccccc2)C3)c1-c1ccc(Cl)cc1` (stereo not given) [4'-Chloro-6-methyl-biphenyl-2-carboxylic acid (2-benzenesulfonylamino-indan-5-yl)-amide], half-maximal inhibition (IC50) required 2.4 nM.

`Cc1cccc(C(=O)Nc2ccc3c(c2)CC(NS(C)(=O)=O)C3)c1-c1ccc(Cl)cc1` (stereo not given) [4'-Chloro-6-methyl-biphenyl-2-carboxylic acid (2-methanesulfonylamino-indan-5-yl)-amide] displayed an IC50 of 6.6 nM.

Consider `Cc1cccc(C(=O)Nc2ccc3c(c2)CCC(NS(C)(=O)=O)CC3)c1-c1ccc(Cl)cc1` (stereo not given) [4'-Chloro-6-methyl-biphenyl-2-carboxylic acid (7-methanesulfonylamino-6,7,8,9-tetrahydro-5H-benzocyclohepten-2-yl)-amide], for which half-maximal inhibition (IC50) was put at 5 nM. Molecule `Cc1cccc(C(=O)Nc2ccc3c(c2)CC(CNS(C)(=O)=O)C3)c1-c1ccc(Cl)cc1` (stereo not given) [4'-Chloro-6-methyl-biphenyl-2-carboxylic acid [2-(methanesulfonylamino-methyl)-indan-5-yl]-amide] displayed an IC50 of 16 nM. With `Cc1cccc(C(=O)Nc2ccc3c(c2)CC(NS(=O)(=O)c2cccs2)C3)c1-c1ccc(Cl)cc1` (stereo not given) [4'-Chloro-6-methyl-biphenyl-2-carboxylic acid [2-(thiophene-2-sulfonylamino)-indan-5-yl]-amide] the figure was 3 nM. For the molecule `Cc1cccc(C(=O)Nc2ccc3c(c2)CC(NS(=O)(=O)c2ccccc2)C3)c1-c1ccc(C#N)cc1` (stereo not given) [4'-Cyano-6-methyl-biphenyl-2-carboxylic acid (2-benzenesulfonylamino-indan-5-yl)-amide], 5.5 nM corresponded to half-maximal inhibition (IC50). Molecule `Cc1cccc(C(=O)Nc2ccc3c(c2)CC(NS(=O)(=O)c2ccccc2)C3)c1-c1ccc(F)cc1` (stereo not given) [4'-Fluoro-6-methyl-biphenyl-2-carboxylic acid (2-benzenesulfonylamino-indan-5-yl)-amide] registered a half-maximal inhibitory concentration (IC50) of 1.2 nM.

Regarding `Cc1cccc(C(=O)Nc2ccc3c(c2)CC(NS(C)(=O)=O)C3)c1-c1ccc(F)cc1` (stereo not given) [4'-Fluoro-6-methyl-biphenyl-2-carboxylic acid (2-methanesulfonylamino-indan-5-yl)-amide], the IC50 was found to be 8.3 nM. As for `Cc1cccc(C(=O)Nc2ccc3c(c2)CC(NS(=O)(=O)c2cccs2)C3)c1-c1ccc(F)cc1` (stereo not given) [4'-Fluoro-6-methyl-biphenyl-2-carboxylic acid [2-(thiophene-2-sulfonylamino)-indan-5-yl]-amide], the IC50 is 1.4 nM. For `CC(=O)NC1Cc2ccc(NC(=O)c3ccccc3-c3ccc(C(F)(F)F)cc3)cc2C1` (stereo not given) [4'-Trifluoromethyl-biphenyl-2-carboxylic acid (2-acetylamino-indan-5-yl)-amide], the IC50 worked out at 120 nM. For `O=C(Nc1ccc2c(c1)CC(NS(=O)(=O)c1ccccc1)C2)c1ccccc1-c1ccc(C(F)(F)F)cc1` (stereo not given) [4'-Trifluoromethyl-biphenyl-2-carboxylic acid (2-benzenesulfonylamino-indan-5-yl)-amide], the midpoint of inhibition, the IC50, lay at 1.3 nM. In the case of `O=C(Nc1ccc2c(c1)C[C@@H](NS(=O)(=O)c1ccccc1)C2)c1ccccc1-c1ccc(C(F)(F)F)cc1` [4'-Trifluoromethyl-biphenyl-2-carboxylic acid (2-benzenesulfonylamino-indan-5-yl)-amide] it was 42 nM; in that of `O=C(NC1Cc2ccc(NC(=O)c3ccccc3-c3ccc(C(F)(F)F)cc3)cc2C1)c1ccccc1` (stereo not given) [4'-Trifluoromethyl-biphenyl-2-carboxylic acid (2-benzoylamino-indan-5-yl)-amide], 270 nM; in that of `O=C(Nc1ccc2c(c1)CC(NCc1ccccc1)C2)c1ccccc1-c1ccc(C(F)(F)F)cc1` (stereo not given) [4'-Trifluoromethyl-biphenyl-2-carboxylic acid (2-benzylamino-indan-5-yl)-amide], 340 nM. `CS(=O)(=O)NC1Cc2ccc(NC(=O)c3ccccc3-c3ccc(C(F)(F)F)cc3)cc2C1` (stereo not given) [4'-Trifluoromethyl-biphenyl-2-carboxylic acid (2-methanesulfonylamino-indan-5-yl)-amide] gave an IC50 of 60 nM. In the case of `CN(C)C(=O)NC1Cc2ccc(NC(=O)c3ccccc3-c3ccc(C(F)(F)F)cc3)cc2C1` (stereo not given) [4'-Trifluoromethyl-biphenyl-2-carboxylic acid [2-(3,3-dimethyl-ureido)-indan-5-yl]-amide] it was 120 nM. With `Cc1cc(C)c(-c2ccc(C(F)(F)F)cc2)c(C(=O)Nc2ccc3c(c2)C[C@@H](NS(=O)(=O)c2cccs2)C3)c1` [4,6-Dimethyl-4'-trifluoromethyl-biphenyl-2-carboxylic acid [2-(thiophene-2-sulfonylamino)-indan-5-yl]-amide] the figure was 2.6 nM.

As to `Cc1cc(C)c(-c2ccc(C(F)(F)F)cc2)c(C(=O)Nc2ccc3c(c2)C[C@H](NS(=O)(=O)c2cccs2)C3)c1` [4,6-Dimethyl-4'-trifluoromethyl-biphenyl-2-carboxylic acid [2-(thiophene-2-sulfonylamino)-indan-5-yl]-amide], inhibition was half-maximal at 1 nM (IC50). `COC(=O)N1CCN([C@@H]2Cc3ccc(NC(=O)c4cccc(C)c4-c4ccc(C(F)(F)F)cc4)cc3C2)CC1` [4-{5-[(6-Methyl-4'-trifluoromethyl-biphenyl-2-carbonyl)-amino]-indan-2-yl}-piperazine-1-carboxylic acid methyl ester] returned an IC50 of 43 nM. As to `COC(=O)N1CCN([C@H]2Cc3ccc(NC(=O)c4cccc(C)c4-c4ccc(C(F)(F)F)cc4)cc3C2)CC1` [4-{5-[(6-Methyl-4'-trifluoromethyl-biphenyl-2-carbonyl)-amino]-indan-2-yl}-piperazine-1-carboxylic acid methyl ester], the IC50 amounted to 1.8 nM.

`Cc1ccc(-c2c(C)cccc2C(=O)Nc2ccc3c(c2)CC(NS(=O)(=O)c2ccccc2)C3)cc1` (stereo not given) [6,4'-Dimethyl-biphenyl-2-carboxylic acid (2-benzenesulfonylamino-indan-5-yl)-amide] showed an IC50 of 2.5 nM.

On to `Cc1cccc(C(=O)Nc2ccc3c(c2)C[C@@H](NS(C)(=O)=O)C3)c1-c1ccc(C(F)(F)F)cc1` [6-Methyl-4'-trifluoromethyl-biphenyl-2-carboxylic acid (2-methanesulfonylamino-indan-5-yl)-amide], for which the IC50 was 8.8 nM.

`Cc1cccc(C(=O)Nc2ccc3c(c2)C[C@H](NS(C)(=O)=O)C3)c1-c1ccc(C(F)(F)F)cc1` [6-Methyl-4'-trifluoromethyl-biphenyl-2-carboxylic acid (2-methanesulfonylamino-indan-5-yl)-amide] had an IC50 of 1.8 nM. The molecule `Cc1cccc(C(=O)Nc2ccc3c(c2)CCC(NS(C)(=O)=O)CC3)c1-c1ccc(C(F)(F)F)cc1` (stereo not given) [6-Methyl-4'-trifluoromethyl-biphenyl-2-carboxylic acid (7-methanesulfonylamino-6,7,8,9-tetrahydro-5H-benzocyclohepten-2-yl)-amide] gave an IC50 of 2.3 nM. With `Cc1cccc(C(=O)Nc2ccc3c(c2)CC(CNS(C)(=O)=O)C3)c1-c1ccc(C(F)(F)F)cc1` (stereo not given) [6-Methyl-4'-trifluoromethyl-biphenyl-2-carboxylic acid [2-(methanesulfonylamino-methyl)-indan-5-yl]-amide] the figure was 6.5 nM; with `Cc1cccc(C(=O)Nc2ccc3c(c2)C[C@H](NS(=O)(=O)c2cccs2)C3)c1-c1ccc(C(F)(F)F)cc1` [6-Methyl-4'-trifluoromethyl-biphenyl-2-carboxylic acid [2-(thiophene-2-sulfonylamino)-indan-5-yl]-amide], 0.9 nM; with `Cc1cccc(C(=O)Nc2ccc3c(c2)CCC(NS(=O)(=O)c2cccs2)CC3)c1-c1ccc(C(F)(F)F)cc1` (stereo not given) [6-Methyl-4'-trifluoromethyl-biphenyl-2-carboxylic acid [7-(thiophene-2-sulfonylamino)-6,7,8,9-tetrahydro-5H-benzocyclohepten-2-yl]-amide], 1.6 nM. `Cc1cccc(C(=O)Nc2ccc3c(c2)CC(CNS(=O)(=O)c2cccs2)C3)c1-c1ccc(C(F)(F)F)cc1` (stereo not given) [6-Methyl-4'-trifluoromethyl-biphenyl-2-carboxylic acid {2-[(thiophene-2-sulfonylamino)-methyl]-indan-5-yl}-amide] displayed an IC50 of 1.9 nM.

Take `COC(=O)NCCC1Cc2ccc(NC(=O)c3cccc(C)c3-c3ccc(C(F)(F)F)cc3)cc2C1` (stereo not given) [(2-{5-[(6-Methyl-4'-trifluoromethyl-biphenyl-2-carbonyl)-amino]-indan-2-yl}-ethyl)-carbamic acid methyl ester]: the IC50 was 10 nM.

`COC(=O)N[C@@H]1Cc2ccc(NC(=O)c3cccc(C)c3-c3ccc(C(F)(F)F)cc3)cc2C1` [(R)-methyl 5-(6-methyl-4'-(trifluoromethyl)biphenyl-2-ylcarboxamido)-2,3-dihydro-1H-inden-2-ylcarbamate] showed an IC50 of 6.4 nM. In the case of `Cc1cccc(C(=O)Nc2ccc3c(c2)C[C@@H](NCc2ccccn2)C3)c1-c1ccc(C(F)(F)F)cc1` [(S)-6-methyl-N-(2-(pyridin-2-ylmethylamino)-2,3-dihydro-1H-inden-5-yl)-4'-(trifluoromethyl)biphenyl-2-carboxamide], the 50% inhibitory concentration (IC50) worked out at 1.7 nM. For `O=C(Nc1ccc2c(c1)CC(NS(=O)(=O)c1ccccc1)C2)c1ccccc1-c1ccccc1` (stereo not given) [Biphenyl-2-carboxylic acid (2-benzenesulfonylamino-indan-5-yl)-amide], the IC50 turned out to be 12 nM.

The molecule `COC(=O)NC1CCc2ccc(NC(=O)c3cccc(C)c3-c3ccc(Cl)cc3)cc2CC1` (stereo not given) [{2-[(4'-Chloro-6-methyl-biphenyl-2-carbonyl)-amino]-6,7,8,9-tetrahydro-5H-benzocyclohepten-7-yl}-carbamic acid methyl ester] displayed a half-inhibitory concentration (IC50) of 2 nM.
